Measured values taken from PMC12174528 (Asian Pacific Journal of Cancer Prevention : APJCP, 2025).
In brackets after ≈: the same amount, converted by molar mass.

Columns and labels:
MCF-7 colony formation = test: Cell proliferation; type: cell-based, human; settings: MCF-7, treated with IC50, 5 days; negative control 100%
MCF-7 cancer cell line = test: Cell viability assay; type: cell-based; settings: Homo sapiens, MCF7, 24 h, read-out: IC50 (cytotoxicity, SRB assay)
MCF-7 cell migration = test: Cell migration; type: cell-based, human; settings: for migration area at 24 hours: MCF-7, treated with IC50, 24 hours, negative control 44.02%
[1] = test system: normal human diploid fibroblasts; settings: cited from earlier work

SMILES	colony formation relative to the negative control (MCF-7 colony formation) [%]	IC50 (MCF-7 cancer cell line) [µg/mL]	migration area at 24 hours (MCF-7 cell migration) [%]	toxic effects on normal human diploid fibroblasts [1]	migration area at 48 hours (MCF-7 cell migration; MCF-7, treated with IC50, 48 hours, negative control 53.99%) [%]
C[C@@H]1O[C@@H](O[C@@H]2[C@@H](O)[C@H](OCCc3ccc(O)c(O)c3)O[C@H](CO)[C@H]2OC(=O)/C=C/c2ccc(O)c(O)c2)[C@H](O)[C@H](O)[C@H]1O [ACT, Acteoside]	39.7	135 (≈ 216 µM)	14.38	no toxic effects	–
C[C@H]1c2cccc(O)c2C(=O)C2=C(O)[C@]3(O)C(=O)C(C(N)=O)=C(O)[C@@H](N(C)C)[C@@H]3[C@@H](O)[C@@H]21 [DOX, doxycycline]	35.56	343 (≈ 773 µM)	6.8	–	-16.50
